Assays:
Type in all cases: in vivo
CYNODON DACTYLON = experiment: Compound (A) with glyphosate, weed plots; details: 840 g/ha; 82 DAA; No. 2.1
From the text: (§1) The compositions were formulated as an emulsifyable concentrate (EC).
(§2) The results in the table under each application are the percentage of the plants that were killed.

HORDEUM PUSILLUM = experiment: Compound (A) with glyphosate, weed plots; details: 840 g/ha; 13 DAA; No. 2.6
From the text: as §1, §2

DIGITARIA SANGUINALIS [1] = experiment: Compound (A) with glyphosate, weed plots; details: 840 g/ha; 52 DAA; No. 2.2
From the text: as §1, §2

AMBROSIA TRIFIDA [2] = experiment: Compound (A) with nicosulfuron, weed plots; details: 35 g/ha; 28 DAA; No. 3.15
Protocol: (§3) In these tests, various weeds were treated with nicosulfuron alone at a rate equivalent to 35 g per hectare, […] and Compound (A) at rates equivalent to the sum of these. The compositions were formulated as an emulsifyable concentrate (EC).
as §2

SETARIA VIRIDIS = experiment: Compound (A) with nicosulfuron, weed plots; details: 35 g/ha; 4 DAA; No. 3.11
Protocol: as §3, §2

SESBANIA EXALTATA [3] = experiment: Compound (A) with nicosulfuron, weed plots; details: 35 g/ha
Protocol: as §3, §2

BRACHIARIA PLATYPHYLLA = experiment: Compound (A) with nicosulfuron, weed plots; details: 35 g/ha
Protocol: as §3, §2

IPOMOEA SP. [4] = experiment: Compound (A) with nicosulfuron, weed plots; details: 35 g/ha; 5 DAA; No. 3.10
Protocol: as §3, §2

C[…]. = experiment: Compound (A) with nicosulfuron, weed plots; details: 35 g/ha; 5 DAA; No. 3.8
Protocol: as §3, §2

ABUTILON THEOPHRASTI [5] = experiment: Compound (A) with nicosulfuron, weed plots; details: 35 g/ha; 27 DAA; No. 3.13
Protocol: as §3, §2

DIGITARIA SANGUINALIS [6] = experiment: Compound (A) with nicosulfuron, weed plots; details: 35 g/ha
Protocol: as §3, §2

[…] = Compound (A) with nicosulfuron, weed plots; details: 35 g/ha; 58 DAA; No. 3.12
Protocol: as §3, §2

SETARIA SP. = experiment: Compound (A) with nicosulfuron, weed plots; details: 35 g/ha; 21 DAA; No. 3.4
Protocol: as §3, §2

CYPERUS ESCULENTUS = experiment: Compound (A) with nicosulfuron, weed plots; details: 35 g/ha
Protocol: as §3, §2

COMMELINA SP. = experiment: Compound (A) with nicosulfuron, weed plots; details: 35 g/ha
From the text: In these tests, […] and Compound (A) at rates equivalent to the sum of these. The compositions were formulated as an emulsifyable concentrate (EC).
as §2

Euphorbia [7] = experiment: Compound (A) with primisulfuron, weed plots; details: 45 DAA, Trial 3.20
From the text: (§4) In these tests, […] and Compound (A) at rates equivalent to the sum of these. The compositions were formulated as an emulsifiable concentrate (EC).
(§5) The results in the tables under each application are the percentage of the plants that were killed.

Ipomoea = experiment: Compound (A) with primisulfuron, weed plots; details: 44 DAA, Trial 3.21
Protocol: In these tests, various weeds were treated with primisulfuron alone at a rate equivalent to 35 g per hectare, […] and Compound (A) at rates equivalent to the sum of these. The compositions were formulated as an emulsifiable concentrate (EC).
as §5

Wheat = experiment: Compound (A) with prosulfuron, weed plots; details: 13 DAA, No. 3.30
Protocol: (§6) In these tests, various weeds were treated with prosulfinuron alone at a rate equivalent to 35 g per hectare, […] and Compound (A) at rates equivalent to the sum of these. The compositions were formulated as an emulsifiable concentrate (EC).
as §5

Euphorbia [8] = experiment: Compound (A) with prosulfuron, weed plots; details: 13 DAA, No. 3.28
Protocol: as §6, §5

Brachiaria = experiment: Compound (A) with prosulfuron, weed plots; details: 13 DAA, No. 3.27
Protocol: as §6, §5

Rice = experiment: Compound (A) with prosulfuron, weed plots; details: 13 DAA, No. 3.29
Protocol: as §6, §5

Veronica = experiment: Compound (A) with prosulfuron, weed plots; details: 13 DAA, No. 3.25
Protocol: as §6, §5

Galium = experiment: Compound (A) with prosulfuron, weed plots; details: 13 DAA, No. 3.24
From the text: as §4, §5

Corn = experiment: Compound (A) with prosulfuron, weed plots; details: 13 DAA, No. 3.26
From the text: as §4, §5

ABUTILON THEOPHRASTI [9] = experiment: Compound (A) with S-metolachlor, weed plots; details: 1420 g/ha
From the text: […] The compositions were formulated as an emulsifyable concentrate (EC).
as §2

AMBROSIA TRIFIDA [10] = experiment: Compound (A) with S-metolachlor, weed plots; details: 1420 g/ha
Protocol: (§7) In these tests, various weeds were treated with S-metolachlor (SMOC) alone at an application rate equivalent to 1420 g per hectare, Compound (A) alone at rates equivalent to 20 g per hectare and […] and with mixtures of S-metolachlor and the Compound (A) at rates equivalent to the sum of these. The compositions were formulated as an emulsifyable concentrate (EC).
as §2

SESBANIA EXALTATA [11] = experiment: Compound (A) with S-metolachlor, weed plots; details: 1420 g/ha; 56 DAA; Trial 4.2
Protocol: as §7, §2

IPOMOEA SP. [12] = experiment: Compound (A) with S-metolachlor, weed plots; details: 1420 g/ha
Protocol: as §7, §2

E[…]-GALLI = experiment: Compound (A) with S-metolachlor, weed plots; details: 1420 g/ha; 28 DAA; Trial 4.1
Protocol: as §7, §2

XANTHIUM STRUMARIUM = experiment: Compound (A) with S-metolachlor, weed plots; details: 1420 g/ha
Protocol: as §7, §2

AMBROSIA ARTEMISIIFOLIA = experiment: Compound (A) with S-metolachlor, weed plots; details: 1420 g/ha
Protocol: as §7, §2

POLYGONUM PENSYLVANICUM = experiment: Compound (A) with S-metolachlor, weed plots; details: 1420 g/ha; 56 DAA; Trial 4.14
Protocol: as §7, §2

C[…] = experiment: Compound (A) with S-metolachlor, weed plots; details: 1420 g/ha
Protocol: as §7, §2

Cyperus = experiment: Compound (A) with sulcotrione, weed plots; details: 14 DAA, Trial 5.1
Protocol: In these tests, various weeds were treated with sulcotrione alone at an application rate equivalent to 1420 g per hectare, […] and Compound (A) at rates equivalent to the sum of these. The compositions were formulated as an emulsifyable concentrate (EC).
as §2

## O=C(O)CNCP(=O)(O)O [Glyphosate, glyphosate, reference compound]
CYNODON DACTYLON
  percentage of the plants that were killed: 0%
HORDEUM PUSILLUM
  percentage of the plants that were killed: 30%
DIGITARIA SANGUINALIS [1]
  percentage of the plants that were killed: 0%

## COc1cc(OC)nc(NC(=O)NS(=O)(=O)c2ncccc2C(=O)N(C)C)n1 [Nicosulfuron, nicosulfuron, reference compound]
AMBROSIA TRIFIDA [2]
  percentage of the plants that were killed: 0%
SETARIA VIRIDIS
  percentage of the plants that were killed: 20%
SESBANIA EXALTATA [3]; 44 DAA, No. 3.3
  percentage of the plants that were killed: 10%
SESBANIA EXALTATA [3]; 45 DAA, No. 3.2
  percentage of the plants that were killed: 0%
BRACHIARIA PLATYPHYLLA; 24 DAA, No. 3.16
  percentage of the plants that were killed: 35%
BRACHIARIA PLATYPHYLLA; 30 DAA, No. 3.17
  percentage of the plants that were killed: 30%
IPOMOEA SP. [4]
  percentage of the plants that were killed: 0%
C[…].
  percentage of the plants that were killed: 50%
ABUTILON THEOPHRASTI [5]
  percentage of the plants that were killed: 50%
DIGITARIA SANGUINALIS [6]; 4 DAA, No. 3.6
  percentage of the plants that were killed: 10%
DIGITARIA SANGUINALIS [6]; 5 DAA, No. 3.14
  percentage of the plants that were killed: 0%
DIGITARIA SANGUINALIS [6]; 21 DAA, No. 3.5
  percentage of the plants that were killed: 70%
[…]
  percentage of the plants that were killed: 0%
SETARIA SP.
  percentage of the plants that were killed: 70%
CYPERUS ESCULENTUS; 7 DAA, No. 3.7
  percentage of the plants that were killed: 0%
CYPERUS ESCULENTUS; 12 DAA, No. 3.9
  percentage of the plants that were killed: 0%
COMMELINA SP.; 10 DAA, No. 3.18
  percentage of the plants that were killed: 0%
COMMELINA SP.; 17 DAA, No. 3.19
  percentage of the plants that were killed: 0%

## O=C(Nc1nc(OC(F)F)cc(OC(F)F)n1)NS(=O)(=O)c1ccccc1C(=O)O [Primisulfuron, primisulfuron, reference compound]
Euphorbia [7]; 7.5 g/ha
  percentage of the plants that were killed: 10%
Euphorbia [7]; 15 g/ha
  percentage of the plants that were killed: 30%
Euphorbia [7]; 30 g/ha
  percentage of the plants that were killed: 50%
Ipomoea; 7.5 g/ha
  percentage of the plants that were killed: 0%
Ipomoea; 15 g/ha
  percentage of the plants that were killed: 20%
Ipomoea; 30 g/ha
  percentage of the plants that were killed: 25%

## COc1nc(C)nc(NC(=O)NS(=O)(=O)c2ccccc2CCC(F)(F)F)n1 [Prosulfuron, prosulfuron, reference compound]
Wheat; 7.5 g/ha
  percentage of the plants that were killed: 0%
Wheat; 15 g/ha
  percentage of the plants that were killed: 0%
Wheat; 30 g/ha
  percentage of the plants that were killed: 0%
Euphorbia [8]; 7.5 g/ha
  percentage of the plants that were killed: 20%
Euphorbia [8]; 15 g/ha
  percentage of the plants that were killed: 20%
Euphorbia [8]; 30 g/ha
  percentage of the plants that were killed: 30%
Brachiaria; 7.5 g/ha
  percentage of the plants that were killed: 0%
Brachiaria; 15 g/ha
  percentage of the plants that were killed: 0%
Brachiaria; 30 g/ha
  percentage of the plants that were killed: 0%
Rice; 7.5 g/ha
  percentage of the plants that were killed: 0%
Rice; 15 g/ha
  percentage of the plants that were killed: 0%
Rice; 30 g/ha
  percentage of the plants that were killed: 0%
Veronica; 7.5 g/ha
  percentage of the plants that were killed: 0%
Veronica; 15 g/ha
  percentage of the plants that were killed: 0%
Veronica; 30 g/ha
  percentage of the plants that were killed: 15%
Galium; 7.5 g/ha
  percentage of the plants that were killed: 30%
Galium; 15 g/ha
  percentage of the plants that were killed: 40%
Galium; 30 g/ha
  percentage of the plants that were killed: 70%
Corn; 7.5 g/ha
  percentage of the plants that were killed: 0%
Corn; 15 g/ha
  percentage of the plants that were killed: 0%
Corn; 30 g/ha
  percentage of the plants that were killed: 0%

## CCc1cccc(C)c1N(C(=O)CCl)[C@@H](C)COC [SMOC, S-metolachlor, reference compound]
ABUTILON THEOPHRASTI [9]; 15 DAA, Trial 4.12
  percentage of the plants that were killed: 65%
ABUTILON THEOPHRASTI [9]; 23 DAA, Trial 4.3
  percentage of the plants that were killed: 13%
ABUTILON THEOPHRASTI [9]; 38 DAA, Trial 4.4
  percentage of the plants that were killed: 0%
ABUTILON THEOPHRASTI [9]; 56 DAA, Trial 4.13
  percentage of the plants that were killed: 0%
AMBROSIA TRIFIDA [10]; 8 DAA, Trial 4.16
  percentage of the plants that were killed: 25%
AMBROSIA TRIFIDA [10]; 42 DAA, Trial 4.15
  percentage of the plants that were killed: 25%
SESBANIA EXALTATA [11]
  percentage of the plants that were killed: 20%
IPOMOEA SP. [12]; 25 DAA, Trial 4.9
  percentage of the plants that were killed: 0%
IPOMOEA SP. [12]; 49 DAA, Trial 4.10
  percentage of the plants that were killed: 0%
E[…]-GALLI
  percentage of the plants that were killed: 75%
XANTHIUM STRUMARIUM; 26 DAA, Trial 4.17
  percentage of the plants that were killed: 38%
XANTHIUM STRUMARIUM; 42 DAA, Trial 4.18
  percentage of the plants that were killed: 30%
AMBROSIA ARTEMISIIFOLIA; 25 DAA, Trial 4.7
  percentage of the plants that were killed: 30%
AMBROSIA ARTEMISIIFOLIA; 49 DAA, Trial 4.8
  percentage of the plants that were killed: 30%
POLYGONUM PENSYLVANICUM
  percentage of the plants that were killed: 0%
C[…]; 26 DAA, Trial 4.5
  percentage of the plants that were killed: 0%
C[…]; 54 DAA, Trial 4.6
  percentage of the plants that were killed: 0%
C[…]; 56 DAA, Trial 4.11
  percentage of the plants that were killed: 0%

## CS(=O)(=O)c1ccc(C(=O)C2C(=O)CCCC2=O)c(Cl)c1 [Sulcotrione, sulcotrione]
Cyperus; 50 g/ha
  percentage of the plants that were killed: 25%
Cyperus; 100 g/ha
  percentage of the plants that were killed: 30%
Cyperus; 200 g/ha
  percentage of the plants that were killed: 30%

Reference: US20090233796A1, “HERBICIDAL COMPOSITION” (SYNGENTA CROP PROTECTION, INC., priority 2004, published 2009)
